System: patients with type 1 or type 2 diabetes mellitus and moderately severe to very severe NPDR
Assay: Clinical Study MBCM(b): Phase 3, randomized, double-masked, placebo-controlled study; frequency of sustained moderate visual loss (SMVL)
Type: in vivo, humans
Conditions: 32 mg/d orally, SMVL = ≧15 letters loss in best-corrected ETDRS visual acuity for 6-month period (30 to 36 months)
Description: MBCM(b) is a Phase 3, multicenter, parallel, randomized, double-masked, placebo-controlled study. Language from the MBCM(b) protocol is included below.
Patients with type 1 or type 2 diabetes mellitus and an Early Treatment Diabetic Retinopathy Study (ETDRS) retinopathy level ≧47A and ≦53E in at least one eye will be eligible to participate in the study. Visual acuity (best-corrected) will be assessed using the ETDRS visual acuity protocol. Retinopathy will be assessed using ETDRS 7 standard field 30 degree color stereoscopic fundus photography. The photographs will be independently assessed by the University of Wisconsin Fundus Photograph Reading Center.
Seventy sites have enrolled patients over a 15-month period. Of the 685 patients enrolled, it is expected that approximately 580 patients will complete the study. […]
Patients may be included in the study only if they meet all of the following general criteria and have at least one eye that meets all of the eye-specific criteria: • [1] […] ETDRS retinopathy level ≧47A and ≦53E without previous panretinal photocoagulation as determined using ETDRS 7 standard field 30-degree color stereoscopic fundus photography. • [3] […] Best-corrected visual acuity score of 45 or more letters as measured using the ETDRS visual acuity protocol (ETDRS Study report number 1, Arch. Opthalmol., 103:1796-1806, 1985) in an eye that has level ≧47A and ≦53E retinopathy. […]

In the case of `CN(C)C[C@@H]1CCn2cc(c3ccccc32)C2=C(C(=O)NC2=O)c2cn(c3ccccc23)CCO1` [RBX, (S)-9-((dimethylamino)methyl)-6,7,10,11-tetrahydro-9H,18H-5,21:12,17-dimethenodibenzo(e,k)pyrrolo(3,4-h)(1,4,13)oxadiazacyclohexadecine-18,20(19H)-dione], the “% Of Patients with SMVL, Focal PC” value (patients with focal photocoagulation) is reported as 8.6% and the “% Of Patients with SMVL, No Focal PC” value (patients without focal photocoagulation) is reported as 2.7%.
